The test has as its target Metabotropic glutamate receptor 2 (Homo sapiens, UniProt Q14416). Briefly: Assessment of mGlu2 Receptor Negative Allosteric Modulator Activity: Human mGlu2 receptor stable expressing cells were prepared and incubated. Luminescence signals by mGlu2 receptor stimulation were detected with FDSS7000 (Hamamatsu Photonics). The compound solution prepared above was added to a plate where cells and luminescent substrates were added (10 μl/well). After 120 seconds of the addition, EC80 Glutamate-containing solution was added thereto (10 μl/well), and luminescence signals were measured for 300 seconds after the addition (center wavelength: 465 nm) for calculation of RLU (Integration). mGlu2 receptor negative allosteric modulator activity of a compound was calculated by (100-100×(RLU of each compound and concentration)/(RLU of DMSO group)).The present compound was assessed with the above biological test, and the compounds with mGlu2 receptor negative allosteric modulator activity were found out.
Metabotropic glutamate receptor 2, sequence (Q14416 whole entry): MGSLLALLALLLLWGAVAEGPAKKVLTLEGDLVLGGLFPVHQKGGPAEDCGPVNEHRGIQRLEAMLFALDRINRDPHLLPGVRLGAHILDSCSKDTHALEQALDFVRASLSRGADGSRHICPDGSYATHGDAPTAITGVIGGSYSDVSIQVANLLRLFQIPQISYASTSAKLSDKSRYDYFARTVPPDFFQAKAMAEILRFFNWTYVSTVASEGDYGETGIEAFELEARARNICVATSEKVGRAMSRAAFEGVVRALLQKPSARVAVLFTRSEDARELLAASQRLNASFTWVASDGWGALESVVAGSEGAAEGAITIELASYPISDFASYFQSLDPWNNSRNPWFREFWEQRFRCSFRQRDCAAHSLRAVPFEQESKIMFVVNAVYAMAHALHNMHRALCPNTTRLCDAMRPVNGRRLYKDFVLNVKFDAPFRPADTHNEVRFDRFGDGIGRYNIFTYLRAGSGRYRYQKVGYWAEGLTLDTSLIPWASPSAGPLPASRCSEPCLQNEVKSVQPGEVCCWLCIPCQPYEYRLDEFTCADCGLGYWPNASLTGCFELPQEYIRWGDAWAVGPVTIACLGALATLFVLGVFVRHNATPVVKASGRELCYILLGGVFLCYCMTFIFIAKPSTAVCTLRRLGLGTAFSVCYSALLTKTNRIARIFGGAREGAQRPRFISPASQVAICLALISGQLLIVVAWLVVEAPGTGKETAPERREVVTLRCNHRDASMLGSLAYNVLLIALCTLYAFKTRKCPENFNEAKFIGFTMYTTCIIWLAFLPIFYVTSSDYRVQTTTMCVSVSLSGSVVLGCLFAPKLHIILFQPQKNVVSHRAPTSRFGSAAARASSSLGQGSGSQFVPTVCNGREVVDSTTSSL
Consider `C[C@H]1CN(c2ccc3c(c2)OC(F)(F)O3)C(=O)c2c(-c3ccc4nccn4c3)cnn21`, for which the IC50 was 19 nM.

Regarding `Cc1cc(N2C[C@H](C)n3ncc(-c4ccc5ncc(C)n5c4)c3C2=O)ccc1F`, the IC50 is 16 nM.

In the case of `C[C@H]1CN(c2ccc(Cl)cc2)C(=O)c2c(-c3ccc4nccn4c3)cnn21`, the IC50 is 26 nM.

In the case of `C[C@H]1CN(c2ccc(Cl)c(F)c2)C(=O)c2c(-c3ccc4nccn4c3)cnn21`, the IC50 is 18 nM.

With `Cc1cnc2ccc(-c3cnn4c3C(=O)N(c3ccc(C(F)(F)F)cc3)C[C@@H]4C)cn12`, the IC50 is 9.1 nM.

Take `C[C@H]1CN(c2ccc(C(F)(F)F)cn2)C(=O)c2c(-c3ccc4nccn4c3)cnn21`: the IC50 is 16 nM.

Take `CCc1cnc2ccc(-c3cnn4c3C(=O)N(c3ccc(C(F)(F)F)cc3)C[C@@H]4C)cn12`: the 50% inhibitory concentration (IC50) is 7.8 nM.
